What was measured:
[1] = Drug uptake in wild type CF1 mouse brain at 30 mg/kg, po after 4 hrs; type: ADME, organism-based; design: dose 30 mg/kg, route oral; details: read-out: Drug uptake
[2] = Drug uptake in wild type CF1 mouse plasma at 30 mg/kg, po after 4 hrs; type: ADME, organism-based; design: dose 30 mg/kg, route oral
[3] = Modulation of gamma-secretase expressed in CHO cells co-expressing APP V717F mutant assessed as reduction in amyloid beta42 production after 17 hrs by ELISA; type: cell-based
Mus musculus [4] = experiment: Inhibition of gamma-secretase-mediated cleavage of APP in wild type CF1 mouse brain assessed as inhibition of amyloid beta42 production at 30 mg/kg, po after 4 hrs by ELISA; type: functional; details: for inhibition in vivo at 30 mg/kg: Mus musculus, CF1, Brain, po, 4 h
[5] = Modulation of gamma-secretase-mediated cleavage of APP assessed as reduction in amyloid beta42 production
Rattus norvegicus = experiment: Inhibition of gamma-secretase-mediated cleavage of APP in rat brain assessed as inhibition of amyloid beta42 production at 30 mg/kg, po after 4 hrs by ELISA
Mus musculus [6] = experiment: Inhibition of gamma-secretase-mediated cleavage of APP in wild type CF1 mouse brain assessed as inhibition of amyloid beta42 production at 12.5 mg/kg, po after 4 hrs by ELISA; type: functional; details: 12.5 mg/kg
Brain = experiment: Drug uptake in rat brain at 30 mg/kg, po after 4 hrs; details: in vivo
[7] = Modulation of gamma-secretase expressed in CHO cells co-expressing polyhistidine-tagged APP695NL I-his with FAD-linked Swedish and London mutation assessed as reduction in amyloid beta42 production after 2 hrs by ELISA; type: cell-based
Mus musculus [8] = experiment: Inhibition of gamma-secretase-mediated cleavage of APP in wild type CF1 mouse brain assessed as inhibition of amyloid beta42 production at 50 mg/kg, po after 4 hrs by ELISA; type: functional
Nucleic Acid = experiment: Ratio of drug level in brain in wild type CF1 mouse to EC50 for gamma-secretase expressed in CHO cells; type: cell-based
[9] = Drug uptake in wild type CF1 mouse brain at 50 mg/kg, po after 4 hrs; type: ADME, organism-based; design: dose 50 mg/kg, route oral; details: read-out: Drug uptake
Mus musculus [10] = experiment: Inhibition of gamma-secretase-mediated cleavage of APP in orally dosed wild type CF1 mouse brain assessed as inhibition of amyloid beta42 production after 4 hrs by ELISA; type: functional, organism-based

SMILES: CC(C)CCC(c1ccc(C(C)C(=O)O)cc1-c1ccc(C(F)(F)F)cc1)N1CCC(C(F)(F)F)CC1 (stereo not given)
- concentration at 4 h [1]: 13 µM
- concentration at 4 h [2]: 22 µM
- EC50 [3]: 0.34 µM
- inhibition in vivo at 30 mg/kg (Mus musculus [4]): 35%

SMILES: O=C(O)C1(c2ccc(-c3ccc(Cl)c(Cl)c3)c(F)c2)CC1
- EC50 [5]: 40 µM

SMILES: CC(C)CCC(c1ccc(CC(=O)O)cc1-c1ccc(C(F)(F)F)cc1)N1CCC(F)CC1 (stereo not given)
- EC50 [3]: 3.3 µM

SMILES: O=C(O)Cc1ccc(C(CC2CCCCC2)N2CCC(C(F)(F)F)CC2)c(-c2ccc(C(F)(F)F)cc2)c1 (stereo not given)
- concentration at 4 h [1]: 18 µM
- concentration at 4 h [2]: 25 µM
- EC50 [3]: 0.54 µM
- inhibition in vivo at 30 mg/kg (Mus musculus [4]): 30%

SMILES: CC(C)CCC(c1ccc(CC(=O)O)cc1-c1ccc(C(F)(F)F)cc1)N1CC[C@@H](F)C1 (stereo not given in full)
- EC50 [3]: > 10 µM

SMILES: CC(C)(C)CC(c1ccc(CC(=O)O)cc1-c1ccc(C(F)(F)F)cc1)N1CCC(C(F)(F)F)CC1 (single isomer, unassigned; enantiomer 2)
- inhibition (INH) (Rattus norvegicus): 30%
- inhibition (INH) (Mus musculus [6]): 30%
- concentration (Brain): 26 µM

SMILES: CC(C)(C)CC(c1ccc(CC(=O)O)cc1-c1ccc(C(F)(F)F)cc1)N1CCC(C(F)(F)F)CC1 (single isomer, unassigned; enantiomer 1)
- IC50 [3]: 0.7 µM
- inhibition (INH) (Mus musculus [4]; 30 mg/kg): 25%

SMILES: C[C@@H](C(=O)O)c1ccc(-c2ccccc2)c(F)c1 [TARENFLURBIL]
- EC50 [7]: 300 µM

SMILES: CC(C)CCN(Cc1ccc(CC(=O)O)cc1-c1ccc(C(F)(F)F)cc1)[C@H]1CC[C@H](C(C)(C)C)CC1
- EC50 [3]: 0.67 µM
- inhibition in vivo at 50 mg/kg (Mus musculus [8]): 24%
- Ratio (Nucleic Acid): 10
- concentration at 4 h [9]: 7 µM

SMILES: CC(C)CCC(c1ccc(CC(=O)O)cc1-c1ccc(C(F)(F)F)cc1)N1CCC(C)CC1 (stereo not given)
- EC50 [3]: 10 µM

SMILES: CC(C)CCN(Cc1ccc(CC(=O)O)cc1-c1ccc(F)cc1)[C@H]1CC[C@H](C(C)(C)C)CC1
- EC50 [3]: 5.6 µM

SMILES: CC(C)(C)CC(c1ccc(CC(=O)O)cc1-c1ccc(C(F)(F)F)cc1)N1CCC(C(F)(F)F)CC1 (racemic)
- inhibition (Mus musculus [10]): Dose-dependent effect

SMILES: O=C(O)Cc1ccc(CN2CCC(C(F)(F)F)CC2)c(-c2ccc(C(F)(F)F)cc2)c1
- EC50 [3]: > 10 µM

SMILES: CC(C)CCC(c1ccc(CC(=O)O)cc1-c1ccc(C(F)(F)F)cc1)N1CCCC(C(F)(F)F)C1 (mixture of isomers)
- EC50 [3]: 0.52 µM

SMILES: CC(C)CCC(c1ccc(C(CC(C)C)C(=O)O)cc1-c1ccc(C(F)(F)F)cc1)N1CCC(C(F)(F)F)CC1 (stereo not given)
- concentration at 4 h [1]: 4 µM
- concentration at 4 h [2]: 14 µM
- EC50 [3]: 0.21 µM
- inhibition in vivo at 30 mg/kg (Mus musculus [4]): 21%

From ChEMBL document CHEMBL1926647, “Discovery of 4-aminomethylphenylacetic acids as γ-secretase modulators via a scaffold design approach” (Bioorg Med Chem Lett, 2011)
